Results taken from article PMC9866191, “Novel 9-Benzylaminoacridine Derivatives as Dual Inhibitors of Phosphodiesterase 5 and Topoisomerase II for the Treatment of Colon Cancer” (Molecules, 2023).

Experiments:
LOX IMVI = assay: NCI-60 one-dose screen; format: cell-based; settings: Homo sapiens, Melanoma panel, single dose 10^−5 M, read-out: Growth inhibition %
CCD-966SK = assay: MTT cell proliferation assay, CCD-966SK; settings: CCD966SK skin fibroblast, 72 h MTT
SN12C = assay: NCI-60 one-dose screen; format: cell-based; settings: Homo sapiens, Renal Cancer panel, single dose 10^−5 M, read-out: Growth inhibition %
Experimental: (§1) The newly synthesized compounds were screened for their in vitro anticancer activity at the Developmental Therapeutic Program (DTP) of the National Cancer Institute (NCI). The screening involved a panel of 60 human tumor cell lines consisting of 9 tissue types to screen for potential anti-cancer agents. The primary screening of submitted compounds was performed by testing a single dose (10^−5 M) in the full NCI-60 panel. The detailed % inhibition by the tested compounds against the 60 cell lines is shown in Tables S1–S3 in the Supporting Information.

A549/ATCC = assay: NCI-60 one-dose screen; format: cell-based; settings: Homo sapiens, Non-small cell lung panel, single dose 10^−5 M, read-out: Growth inhibition %
Experimental: as §1

K-562 = assay: NCI-60 one-dose screen; format: cell-based; settings: Homo sapiens, K562; K-562, Leukemia panel; single dose 10^−5 M; read-out: Growth inhibition %
Experimental: as §1

NCI-H226 = assay: NCI-60 one-dose screen; format: cell-based; settings: Homo sapiens; NCI-H226, Non-small cell lung panel; single dose 10^−5 M; read-out: Growth inhibition %
Experimental: as §1

RPMI-8226 = assay: NCI-60 one-dose screen; format: cell-based; settings: Homo sapiens; RPMI-8226, Leukemia panel; single dose 10^−5 M; read-out: Growth inhibition %
Experimental: as §1

SW-620 = assay: NCI-60 one-dose screen; format: cell-based; settings: Homo sapiens; SW-620, Colon Cancer panel; single dose 10^−5 M; read-out: Growth inhibition %
Experimental: as §1

UACC-257 = assay: NCI-60 one-dose screen; format: cell-based; settings: Homo sapiens; UACC-257, Melanoma panel; single dose 10^−5 M; read-out: Growth inhibition %
Experimental: as §1

RXF 393 = assay: NCI-60 one-dose screen; format: cell-based; settings: Homo sapiens; RXF 393, Renal Cancer panel; single dose 10^−5 M; read-out: Growth inhibition %
Experimental: as §1

SNB-19 = assay: NCI-60 one-dose screen; format: cell-based; settings: Homo sapiens; SNB-19, CNS Cancer panel; single dose 10^−5 M; read-out: Growth inhibition %
Experimental: as §1

MALME-3M = assay: NCI-60 one-dose screen; format: cell-based; settings: Homo sapiens, Melanoma panel, single dose 10^−5 M, read-out: Growth inhibition %
Experimental: as §1

OVCAR-3 = assay: NCI-60 one-dose screen; format: cell-based; settings: Homo sapiens; OVCAR-3, Ovarian Cancer panel; single dose 10^−5 M; read-out: Growth inhibition %
Experimental: as §1

HOP-62 = assay: NCI-60 one-dose screen; format: cell-based; settings: Homo sapiens; HOP-62, Non-small cell lung panel; single dose 10^−5 M; read-out: Growth inhibition %
Experimental: as §1

KM12 = assay: NCI-60 one-dose screen; format: cell-based; settings: Homo sapiens; KM12, Colon Cancer panel; single dose 10^−5 M; read-out: Growth inhibition %
Experimental: as §1

SF-539 = assay: NCI-60 one-dose screen; format: cell-based; settings: Homo sapiens; SF-539, CNS Cancer panel; single dose 10^−5 M; read-out: Growth inhibition %
Experimental: as §1

HCC-2998 = assay: NCI-60 one-dose screen; format: cell-based; settings: Homo sapiens; HCC-2998, Colon Cancer panel; single dose 10^−5 M; read-out: Growth inhibition %
Experimental: as §1

SK-MEL-2 = assay: NCI-60 one-dose screen; format: cell-based; settings: Homo sapiens; SK-MEL-2, Melanoma panel; single dose 10^−5 M; read-out: Growth inhibition %
Experimental: as §1

U251 = assay: NCI-60 one-dose screen; format: cell-based; settings: Homo sapiens, U-251; U251, CNS Cancer panel; single dose 10^−5 M; read-out: Growth inhibition %
Experimental: as §1

TK-10 = assay: NCI-60 one-dose screen; format: cell-based; settings: Homo sapiens; TK-10, Renal Cancer panel; single dose 10^−5 M; read-out: Growth inhibition %
Experimental: as §1

MDA-MB-468 = assay: NCI-60 one-dose screen; format: cell-based; settings: Homo sapiens; MDA-MB-468, Breast Cancer panel; single dose 10^−5 M; read-out: Growth inhibition %
Experimental: as §1

HS 578T = assay: NCI-60 one-dose screen; format: cell-based; settings: Homo sapiens, Breast Cancer panel, single dose 10^−5 M, read-out: Growth inhibition %
Experimental: as §1

HCT-116 = assay: NCI-60 one-dose screen; format: cell-based; settings: Homo sapiens, read-out: Growth inhibition %
Experimental: as §1

UO-31 = assay: NCI-60 one-dose screen; format: cell-based; settings: Homo sapiens; UO-31, Renal Cancer panel; single dose 10^−5 M; read-out: Growth inhibition %
Experimental: as §1

MDA-MB-231/ATCC = assay: NCI-60 one-dose screen; format: cell-based; settings: Homo sapiens, Breast Cancer panel, single dose 10^−5 M, read-out: Growth inhibition %
Experimental: as §1

COLO 205 = assay: NCI-60 one-dose screen; format: cell-based; settings: Homo sapiens; COLO 205, Colon Cancer panel; single dose 10^−5 M; read-out: Growth inhibition %
Experimental: as §1

UACC-62 = assay: NCI-60 one-dose screen; format: cell-based; settings: Homo sapiens; UACC-62, Melanoma panel; single dose 10^−5 M; read-out: Growth inhibition %
Experimental: as §1

OVCAR-8 = assay: NCI-60 one-dose screen; format: cell-based; settings: Homo sapiens; OVCAR-8, Ovarian Cancer panel; single dose 10^−5 M; read-out: Growth inhibition %
Experimental: as §1

NCI-H322M = assay: NCI-60 one-dose screen; format: cell-based; settings: Homo sapiens, Non-small cell lung panel, single dose 10^−5 M, read-out: Growth inhibition %
Experimental: as §1

PDE5A = target: T1, PDE5A (Homo sapiens, UniProt O76074); assay: Phosphodiesterase 5 HTRF cGMP assay; format: biochemical; settings: for IC50: means ± S.D. (n = 4), read-out: PDE5 IC50; for inhibition at 10 µM: read-out: PDE5 % Inhibition at 10 μM
T1 construct: purchased BPS Bioscience, San Diego, CA, USA
Experimental: All the synthesized acridine derivatives were tested for their in vitro ability to inhibit PDE5A at a screening dose of 10 µM.
The enzyme activities of phosphodiesterase 5 (PDE5) were measured using an HTRF cGMP assay kit (Cisbio, Codolet, France). […] Afterward, the HTRF reagent (cGMP-d2 and anti-cGMP-cryptate) was added for 1 h at 25 °C, and PDE activity was assayed on an HTRF reader (Tecan Infinite F200 Pro).

| Structure (SMILES) | inhibition at 10 µM (LOX IMVI) [%] | % Inhibition at 10 µM (CCD-966SK) [%] | inhibition at 10 µM (SN12C) [%] | inhibition at 10 µM (A549/ATCC) [%] | inhibition at 10 µM (K-562) [%] | inhibition at 10 µM (NCI-H226) [%] | inhibition at 10 µM (RPMI-8226) [%] | inhibition at 10 µM (SW-620) [%] | inhibition at 10 µM (UACC-257) [%] | inhibition at 10 µM (RXF 393) [%] | inhibition at 10 µM (SNB-19) [%] | inhibition at 10 µM (MALME-3M) [%] | inhibition at 10 µM (OVCAR-3) [%] | inhibition at 10 µM (HOP-62) [%] | inhibition at 10 µM (KM12) [%] | inhibition at 10 µM (SF-539) [%] | inhibition at 10 µM (HCC-2998) [%] | inhibition at 10 µM (SK-MEL-2) [%] | inhibition at 10 µM (U251) [%] | inhibition at 10 µM (TK-10) [%] | also measured |
| --- | --- | --- | --- | --- | --- | --- | --- | --- | --- | --- | --- | --- | --- | --- | --- | --- | --- | --- | --- | --- | --- |
| Fc1cccc(CNc2c3ccccc3nc3ccccc23)c1 [Compound 9, Acridin-9-yl-(3-fluorobenzyl)-amine] | 87.7 | 42.74 ± 2.09 | 67.2 | 70.8 | 84.3 | 49.4 | 89.9 | 78 | 41.9 | 67.2 | 64.1 | 49.5 | 33 | 52.1 | 51.4 | 73.1 | 70.1 | 18.6 | 64.8 | 35.9 | inhibition at 10 µM (MDA-MB-468): 99.4%; inhibition at 10 µM (HS 578T): 36.1%; inhibition at 10 µM (HCT-116): 86.6%; inhibition at 10 µM (UO-31): 76%; inhibition at 10 µM (MDA-MB-231/ATCC): 69.4%; inhibition at 10 µM (COLO 205): 82.7%; inhibition at 10 µM (UACC-62): 49.7%; inhibition at 10 µM (OVCAR-8): 64%; inhibition at 10 µM (NCI-H322M): 59.8%; IC50 (PDE5A): 7.49 ± 2.2 µM; inhibition at 10 µM (PDE5A): 55.9 ± 5.78% |
| Fc1ccc(CNc2c3ccccc3nc3ccccc23)cc1 [Compound 10, Acridin-9-yl-(4-fluorobenzyl)-amine] | 90.6 | 52.93 ± 1.00 | 74.3 | 76.3 | 95.2 | 48.2 | 100 | 77.2 | 64 | 99.8 | 67.6 | 74.3 | 61.3 | 57 | 71.7 | 86.9 | 81.7 | 56.2 | 74.1 | 69.8 | IC50 (CCD-966SK; read-out: IC50 μM): 9.26 ± 0.21 µM; inhibition at 10 µM (MDA-MB-468): 88.5%; inhibition at 10 µM (HS 578T): 60.5%; inhibition at 10 µM (HCT-116): 87.5%; inhibition at 10 µM (UO-31): 86.5%; inhibition at 10 µM (MDA-MB-231/ATCC): 61.7%; inhibition at 10 µM (COLO 205): 92.5%; inhibition at 10 µM (UACC-62): 49.8%; inhibition at 10 µM (OVCAR-8): 77.7%; inhibition at 10 µM (NCI-H322M): 61.5%; IC50 (PDE5A): > 10 µM; inhibition at 10 µM (PDE5A): 47 ± 7.06% |
| Clc1ccccc1CNc1c2ccccc2nc2ccccc12 [Compound 11, Acridin-9-yl-(2-chlorobenzyl)-amine] | 95.2 | 36.77 ± 3.49 | 72.2 | 80.8 | 94.7 | 61.1 | 127 | 90.4 | 55.7 | 85 | 74.2 | 81 | 46.4 | 59.1 | 78 | 93.8 | 117 | 44.4 | 76.8 | 57.5 | inhibition at 10 µM (MDA-MB-468): 128%; inhibition at 10 µM (HS 578T): 50%; inhibition at 10 µM (HCT-116): 91.9%; inhibition at 10 µM (UO-31): 82.5%; inhibition at 10 µM (MDA-MB-231/ATCC): 71%; inhibition at 10 µM (COLO 205): 99.5%; inhibition at 10 µM (UACC-62): 59%; inhibition at 10 µM (OVCAR-8): 76.2%; inhibition at 10 µM (NCI-H322M): 73%; IC50 (PDE5A): 4.33 ± 2.35 µM; inhibition at 10 µM (PDE5A): 87.3 ± 3.68% |
| Clc1cccc(CNc2c3ccccc3nc3ccccc23)c1 [Compound 12, Acridin-9-yl-(3-chlorobenzyl)-amine] | 98.2 | 45.43 ± 0.42 | 76.4 | 72.1 | 95 | 52 | 124 | 88 | 54.6 | 81 | 73.6 | 55 | 42.3 | 54.5 | 59.2 | 90.7 | 154 | 22.7 | 77.3 | 47.9 | inhibition at 10 µM (MDA-MB-468): 118%; inhibition at 10 µM (HS 578T): 46.3%; inhibition at 10 µM (HCT-116): 91.3%; inhibition at 10 µM (UO-31): 84%; inhibition at 10 µM (MDA-MB-231/ATCC): 70.6%; inhibition at 10 µM (COLO 205): 99.5%; inhibition at 10 µM (UACC-62): 47.5%; inhibition at 10 µM (OVCAR-8): 68.9%; inhibition at 10 µM (NCI-H322M): 68.7%; IC50 (PDE5A): 6.29 ± 1.18 µM; inhibition at 10 µM (PDE5A): 62.2 ± 4.94% |
| Clc1ccc(CNc2c3ccccc3nc3ccccc23)cc1 [Compound 13, Acridin-9-yl-(4-chlorobenzyl)-amine] | 77 | 2.73 ± 4.11 | 60.9 | 60.7 | 95.7 | 24.5 | 92 | 69 | 23.9 | 70.3 | 56.9 | 60.4 | 48.9 | 47 | 64.4 | 69.7 | 110 | 27.6 | 53.8 | 50.3 | inhibition at 10 µM (MDA-MB-468): 70.4%; inhibition at 10 µM (HS 578T): 46.2%; inhibition at 10 µM (HCT-116): 84.3%; inhibition at 10 µM (UO-31): 73%; inhibition at 10 µM (MDA-MB-231/ATCC): 45.2%; inhibition at 10 µM (COLO 205): 91.4%; inhibition at 10 µM (UACC-62): 29.3%; inhibition at 10 µM (OVCAR-8): 68.1%; inhibition at 10 µM (NCI-H322M): 45.9%; IC50 (PDE5A): > 10 µM; inhibition at 10 µM (PDE5A): 45.3 ± 3.99% |
